Data taken from US10662146B2, “Prodrugs of fencamfamine” (Praxis Bioresearch, LLC, priority 2015, dated 2020).
Where “and” joins values, the source holds several entries; their conditions need not be identical. Identical values can stand only once. Like-named read-outs stand apart in the source and are kept apart here.

Assay: Single dose oral PK study in male Sprague Dawley rats (plasma by LC-MS/MS)
Type: in vivo
Experimental: We describe here PK results of prodrugs of PRX-002 (−) or (+) isomers. All doses of prodrugs were administered such that they were equivalent to 5 mg/kg of PRX-002 (−) or (+) for oral studies and 2 mg/kg PRX-002 (−) or (+) for intravenous studies in male Sprague-Dawley (MSD) rats. Higher doses of up to 10 or 15 mg/kg [again equivalent to PRX-002 (−)] were used in some studies (as specified)]. Formulation preparation, dose administration and time of sample collection was as follows.
Test item was weighed [5 mg equivalent dose of PRX-002 for prodrugs] and transferred to a graduated tube. Then 10 μL of Tween 80 was added and vortexed mixed until the test item was completely mixed. Small volume of 0.5% (w/v) carboxymethylcellulose in water solution was then added dropwise with continuous vortex mixing until a uniform suspension was obtained. The final volume was then made up to 10 mL with 0.5% (w/v) carboxymethylcellulose in water with final strength of 0.5 mg/mL. […] This formulation was freshly prepared before the administration to animals.
(§1) Adult male Sprague Dawley Rats aged 8-10 weeks were used for the study. Fasted animals were administered test item by oral route with a dose of 5 mg/kg body weight at dose volume of 10 mL/kg body weight. Under mild isoflurane anesthesia, blood specimens were collected by retro-orbital puncture method using capillary tubes into pre-labeled tubes containing anticoagulant (K2EDTA-2 mg/mL blood) during the next 24 hours of post dose as mentioned in below table. For blood sampling at multiple time points, right and left eyes were used alternatively for blood collection. Collected blood specimens were centrifuged at 4000 rpm, 4° C. for 10 minutes and plasma were separated and stored at −80° C. until analysis.
Blood was collected as outlined in Table 39.1 (oral).
Test item PRX-P4-003 was weighed and transferred to a graduated tube. Then 12.42 μL of Tween 80 was added and vortexed mixed until the test item was completely mixed. Small volume of 0.5% (w/v) Carboxymethylcellulose in water solution was then added dropwise with continuous vortex mixing until a uniform suspension was obtained. The final volume was then made up to 12.42 mL with 0.5% (w/v) Carboxymethylcellulose in water with final strength of 1.0 mgA/mL. […] This formulation was freshly prepared before the administration to animals.
as §1, with “with a PRX-P4-003” for “test item”, “10” for “5”
Test item PRX-P5-006 was weighed and transferred to a graduated tube. Then 10 μL of Tween 80 was added and vortexed mixed until the test item was completely mixed. Small volume of 0.5% (w/v) Carboxymethylcellulose in water solution was then added dropwise with continuous vortex mixing until a uniform suspension was obtained. The final volume was then made up to 10 mL with 0.5% (w/v) Carboxymethylcellulose in water with final strength of 3.97 mg/mL. […] This formulation was freshly prepared before the administration to animals.
Adult male Sprague Dawley Rats aged 8-10 weeks were used for the study. Fasted animals were administered with a PRX-P5-006 by oral route with a dose of 15 mg/kg body weight at dose volume of 10 mL/kg body weight. […]

[1] = single oral dose 5 mg/kg body weight, individual animals (R0175, R0176, R0177), plasma, 5 mg/kg
[2] = PRX-P5-006 oral 5 mg/kg b.w., individual animals, 5 mg/kg
[3] = PRX-P5-006 oral 5 mg/kg, mean, 5 mg/kg

For `CCN[C@H]1[C@H]2CC[C@H](C2)[C@@H]1c1ccccc1` [PRX-002 (+) Isomer, (1S,2S,3R,4R)—N-Ethyl-3-phenylbicyclo[2.2.1]heptan-2-amine, reference compound], the “AUC% extrap of PRX-002(+) Isomer” value (PRX-002 (+) Isomer oral 5 mg/kg, mean, listed as PRX-002(+) Isomer, 5 mg/kg) was 18.063 ±11.646%, the “AUC% extrap of PRX-002(+) Isomer” value (PRX-002 (+) Isomer oral 5 mg/kg, mean, listed as PRX-002 (+isomer), 5 mg/kg) was 18.063 ± 11.646% and the AUC(0-inf) (male, Sprague Dawley, rat, in vivo, po, 5 mg/kg, single oral dose 5 mg/kg b.w., mean plasma PK parameters (mean ± SD), read-out: AUCinf) was 151 ± 68.6 ng·h/mL. The AUC(0-t) (male, Sprague Dawley, rat, in vivo, po, 5 mg/kg, single oral dose 5 mg/kg b.w., mean plasma PK parameters (mean ± SD), read-out: AUClast) was 128 ± 74.2 ng·h/mL, the Cmax (male, Sprague Dawley, rat, in vivo, po, 5 mg/kg, single oral dose 5 mg/kg b.w., mean plasma PK parameters (mean ± SD), read-out: Cmax) was 107 ± 25.4 ng/mL and the MRT last (male, Sprague Dawley, rat, in vivo, po, 5 mg/kg, single oral dose 5 mg/kg b.w., mean plasma PK parameters (mean ± SD), read-out: MRTlast) was 57.4 ± 16.1 min. It also gave a half-life (male, Sprague Dawley, rat, in vivo, po, 5 mg/kg, single oral dose 5 mg/kg b.w., mean plasma PK parameters (mean ± SD), read-out: T1/2 (converted)) of 59.5 ± 13.7 min, a Cmax (male, Sprague Dawley, rat, in vivo, po, 5 mg/kg, single oral dose 5 mg/kg body weight, individual animals (R0175, R0176, R0177), plasma, read-out: Cmax) of 135 ng/mL and an MRT last (male, Sprague Dawley, rat, in vivo, po, 5 mg/kg, single oral dose 5 mg/kg body weight, individual animals (R0175, R0176, R0177), plasma, read-out: MRTlast) of 75.6 min. The half-life (male, Sprague Dawley, rat, in vivo, po, 5 mg/kg, single oral dose 5 mg/kg body weight, individual animals (R0175, R0176, R0177), plasma, read-out: T1/2 (converted)) was 64.2 min, the AUC(0-inf) (male, Sprague Dawley, rat, in vivo, po, 5 mg/kg, single oral dose 5 mg/kg body weight, mean of N=3 (Table 39.24), read-out: AUCinf) was 151 ng·h/mL and the AUC(0-t) (male, Sprague Dawley, rat, in vivo, po, 5 mg/kg, single oral dose 5 mg/kg body weight, mean of N=3 (Table 39.24), read-out: AUClast) was 128 ng·h/mL. It also gave a Cmax (male, Sprague Dawley, rat, in vivo, po, 5 mg/kg, single oral dose 5 mg/kg body weight, mean of N=3 (Table 39.24), read-out: Cmax) of 107 ng/mL, an MRT last (male, Sprague Dawley, rat, in vivo, po, 5 mg/kg, single oral dose 5 mg/kg body weight, mean of N=3 (Table 39.24), read-out: MRTlast) of 57.4 min and a half-life (male, Sprague Dawley, rat, in vivo, po, 5 mg/kg, single oral dose 5 mg/kg body weight, mean of N=3 (Table 39.24), read-out: T1/2 (converted)) of 59.5 min. The Tmax (male, Sprague Dawley, rat, in vivo, single oral dose 5 mg/kg body weight, individual animals (R0175, R0176, R0177), plasma, read-out: Tmax) was 30 min, the AUC(0-inf) (male, Sprague-Dawley, rat, in vivo, po, 5 mg/kg, PRX-002 (+) Isomer oral 5 mg/kg, mean, read-out: AUCinf of PRX-002(+) Isomer) was 151 ± 68.6 ng·h/mL and the AUC(0-t) (male, Sprague-Dawley, rat, in vivo, po, 5 mg/kg, PRX-002 (+) Isomer oral 5 mg/kg, mean, read-out: AUClast of PRX-002(+) Isomer) was 128 ± 74.2 ng·h/mL. It also gave a Cmax (male, Sprague-Dawley, rat, in vivo, po, 5 mg/kg, PRX-002 (+) Isomer oral 5 mg/kg, mean, read-out: Cmax of PRX-002(+) Isomer) of 107 ± 25.4 ng/mL, an MRT last (male, Sprague-Dawley, rat, in vivo, po, 5 mg/kg, PRX-002 (+) Isomer oral 5 mg/kg, mean, read-out: MRTlast of PRX-002(+) Isomer) of 57.4 ± 16.1 min and a half-life (male, Sprague-Dawley, rat, in vivo, po, 5 mg/kg, PRX-002 (+) Isomer oral 5 mg/kg, mean, read-out: T1/2 of PRX-002(+) Isomer (converted)) of 59.5 ± 13.7 min. The Tmax (male, Sprague-Dawley, rat, in vivo, PRX-002 (+) Isomer oral 5 mg/kg, mean, read-out: Tmax of PRX-002(+) Isomer) was 30 min, the AUC% extrap (single oral dose 5 mg/kg b.w., mean plasma PK parameters (mean ± SD)) was 18.063 ± 11.646% and the AUC% extrap [1] was 6.89% and 30.13% and 17.17%. The AUCinf [1] was 229.43 ng·h/mL and 124.51 ng·h/mL and 100.4 ng·h/mL, the AUClast [1] was 213.62 ng·h/mL and 87 ng·h/mL and 83.16 ng·h/mL and the Cmax [1] was 85.44 ng/mL and 99.85 ng/mL. For the same compound, the MRTlast [1] was 51.6 min and 45 min, the T1/2 [1] was 70.2 min and 44.4 min and the AUC% extrap (single oral dose 5 mg/kg body weight, mean of N=3 (Table 39.24)) was 18.063%.

With `CCCCCCCCCCCCCCCCCC(=O)OC(C)OC(=O)N(CC)C1C2CCC(C2)C1c1ccccc1` (single isomer, unassigned) [PRX-P5-006, N-(1-Octadecanoyloxyethoxycarbonyl)-(−)-N-ethyl-3-phenylbicyclo[2.2.1]heptan-2-amine] the “AUC% extrap of PRX-P5-006” value [2] was 62.02% and 50.02% and 31.64%, the “AUCinf of PRX-P5-006” value [2] was 132.93 ng·h/mL and 88.37 ng·h/mL and the “AUClast of PRX-P5-006” value [2] was 66.44 ng·h/mL and 60.40 ng·h/mL. The “Cmax of PRX-P5-006” value [2] was 72.65 ng/mL and 67.85 ng/mL, the “MRTlast of PRX-P5-006” value [2] was 63 min and the “T1/2 of PRX-P5-006” value [2] was 199 min and 115 min. The “AUC% extrap of PRX-P5-006” value [3] was 47.896 ± 15.3010% and 47.896%, the “T1/2 of PRX-P5-006” value [3] was 174.4 min and the AUC(0-inf) (male, Sprague Dawley, rat, in vivo, po, 5 mg/kg, PRX-P5-006 oral 5 mg/kg, mean, read-out: AUCinf of PRX-P5-006) was 115 ± 23.3 ng·h/mL. It also gave an AUC(0-t) (male, Sprague Dawley, rat, in vivo, po, 5 mg/kg, PRX-P5-006 oral 5 mg/kg, mean, read-out: AUClast of PRX-P5-006) of 57.8 ± 10.2 ng·h/mL, a half-life (male, Sprague Dawley, rat, in vivo, po, 5 mg/kg, PRX-P5-006 oral 5 mg/kg, mean, read-out: T1/2 of PRX-P5-006 (converted)) of 174 ± 51.9 min and a Cmax (male, Sprague Dawley, rat, in vivo, po, 15 mg/kg, oral 15 mg/kg (footnote *), analyte: prodrug in plasma, mean, read-out: Oral PK Parameters Cmax, Prodrug) of 81.6 ± 42.2 ng/mL. The Tmax (male, Sprague Dawley, rat, in vivo, oral 5 mg/kg [equivalent to PRX-002 (−)], analyte: prodrug in plasma, mean, read-out: Oral PK Parameters Tmax, Prodrug) was 0 min, the AUC (male, Sprague Dawley, rat, in vivo, oral 15 mg/kg (footnote *), analyte: prodrug in plasma, mean, read-out: Oral PK Parameters AUC, Prodrug) was 477 ± 54.4 ng·h/mL and the Tmax (male, Sprague Dawley, rat, in vivo, oral 15 mg/kg (footnote *), analyte: prodrug in plasma, mean, read-out: Oral PK Parameters Tmax, Prodrug) was 48 ± 18 min. For the same compound, the AUC(0-inf) (male, Sprague-Dawley, rat, in vivo, po, 5 mg/kg, PRX-P5-006 oral 5 mg/kg b.w., individual animals, read-out: AUCinf of PRX-P5-006) was 123 ng·h/mL, the AUC(0-t) (male, Sprague-Dawley, rat, in vivo, po, 5 mg/kg, PRX-P5-006 oral 5 mg/kg b.w., individual animals, read-out: AUClast of PRX-P5-006) was 46.6 ng·h/mL and the Cmax (male, Sprague-Dawley, rat, in vivo, po, 5 mg/kg, PRX-P5-006 oral 5 mg/kg b.w., individual animals, read-out: Cmax of PRX-P5-006) was 43.9 ng/mL. It also gave an MRT last (male, Sprague-Dawley, rat, in vivo, po, 5 mg/kg, PRX-P5-006 oral 5 mg/kg b.w., individual animals, read-out: MRTlast of PRX-P5-006) of 66 min, a half-life (male, Sprague-Dawley, rat, in vivo, po, 5 mg/kg, PRX-P5-006 oral 5 mg/kg b.w., individual animals, read-out: T1/2 of PRX-P5-006 (converted)) of 210 min and a Cmax (male, Sprague-Dawley, rat, in vivo, po, 5 mg/kg, PRX-P5-006 oral 5 mg/kg, mean, read-out: Cmax of PRX-P5-006) of 61.5 ± 15.4 ng/mL. The MRT last (male, Sprague-Dawley, rat, in vivo, po, 5 mg/kg, PRX-P5-006 oral 5 mg/kg, mean, read-out: MRTlast of PRX-P5-006) was 64.2 ± 1.5 min and the Tmax (male, Sprague-Dawley, rat, in vivo, PRX-P5-006 oral 5 mg/kg, mean, read-out: Tmax of PRX-P5-006) was 60 min.
